For data set [1], the system named is Bombyx mori. The data set can be described thus: Precocious metamorphosis-inducing activity in Bombyx mori Shunrei x Shougetsu fourth-instar larvae assessed as change in body weight at >80 ug applied topically measured every 12 hr during fourth-instar period. The data set is classed as functional.
Data set [2] relates to Bombyx mori. The data set can be described thus: Precocious metamorphosis-inducing activity in Bombyx mori Shunrei x Shougetsu fourth-instar larvae assessed as change in body weight compound applied topically measured every 12 hr during fourth-instar period. The data set is classed as functional.
A short description of data set [3]: Toxicity in Bombyx mori Shunrei x Shougetsu fourth-instar larvae assessed as mortality at 160 ug applied topically. The data set is classed as organism-based. The conditions noted are these: in vivo, topical or ocular.
For data set [4], the system named is Bombyx mori. In words: Precocious metamorphosis-inducing activity in Bombyx mori Shunrei x Shougetsu fourth-instar larvae assessed as change in body weight at >160 ug applied topically measured every 12 hr during fourth-instar period. The format is functional.

What is called mortality is the share of the test organisms that died. Regarding `C(=C/c1cccnc1)/c1ccccc1`, in the data set with Bombyx mori [1], the Activity is listed as 7%. The ED50 in the data set with Bombyx mori [2] was >80 µg. The mortality in data set [3] was 100%.
Turning to `C(=C\c1cccnc1)/c1ccccc1`, the ED50 in the data set with Bombyx mori [2] is >160 µg. In the data set with Bombyx mori [4], the Activity is reported as 9%.
Taken in the same sequence, the figures for `CCCCCC=C(c1ccccc1)c1cccnc1` were >160 µg and 35%.
For `CCCCC=C(c1ccccc1)c1cccnc1`, the ED50 with Bombyx mori [2] turned out to be 102 µg.
On the same count and under the same terms, the result for `CC(C)CC=C(c1ccccc1)c1cccnc1` reads 34 µg; that for `CCCC=C(c1ccccc1)c1cccnc1`, 50 µg; that for `CCC=C(c1ccccc1)c1cccnc1`, 29 µg.
On the same count and under the same terms, the result for `CC(=Cc1ccccc1)c1cccnc1` reads 42 µg.
The same measure, in the same setting: the result for `C(=C(c1ccccc1)c1cccnc1)c1ccccc1` reads 144 µg; that for `CC=C(c1ccccc1)c1cccnc1`, 26 µg.
Regarding `CC=C(C)c1cccnc1`, the ED50 with Bombyx mori [2] was >160 µg. The Activity with Bombyx mori [4] was 20%.
In the case of `C=C(c1ccccc1)c1cccnc1`, the ED50 in the data set with Bombyx mori [2] came to 56 µg.
On to `CCOC(=O)/C=C/c1cccnc1`, for which the ED50 with Bombyx mori [2] is >160 µg. Besides, the Activity in the data set with Bombyx mori [4] came to 0%.
For `CC=Cc1cccnc1`, in that order: >160 µg and 0%.
For `CCOC(=O)/C=C(/C)c1cccnc1`, in that order: >160 µg and 0%.
Turning to `CCOC(=O)C=C(c1ccccc1)c1cccnc1`, the ED50 with Bombyx mori [2] stood at 89 µg.
`CCOC(=O)/C=C(\C)c1cccnc1`: in the data set on Bombyx mori [2], the ED50 was >160 µg. For the same molecule, in the data set on Bombyx mori [4], the Activity turned out to be 5%.
Consider `CC(C)C=C(c1ccccc1)c1cccnc1`, for which the ED50 in the data set with Bombyx mori [2] worked out at 27 µg.
On to `CCC(c1ccccc1)c1cccnc1` (racemic), for which, in the data set with Bombyx mori [2], the ED50 is 42 µg.

The values are drawn from ChEMBL document CHEMBL3046714, “Synthesis and Precocious Metamorphosis-Inducing Activity of 3-(1-Alkenyl) pyridines” (J Pestic Sci, 2000).
